Test results: ChEMBL document CHEMBL2034842, “Synthesis, anti-Candida activity, and cytotoxicity of new (4-(4-iodophenyl)thiazol-2-yl)hydrazine derivatives” (Eur J Med Chem, 2012)
Values after ≈ are worked out from the molar mass of the structure shown.

Key:
Format in all cases: functional
Escherichia coli = experiment: Antibacterial activity against Escherichia coli after 18 to 22 hrs by […]
Proteus vulgaris = experiment: Antibacterial activity against Proteus vulgaris after 18 to 22 hrs by […]
Klebsiella aerogenes = experiment: Antibacterial activity against Enterobacter aerogenes after 18 to 22 hrs by […]
Klebsiella pneumoniae = experiment: Antibacterial activity against Klebsiella pneumoniae after 18 to 22 hrs by […]
Staphylococcus aureus = experiment: Antibacterial activity against Staphylococcus aureus after 18 to 22 hrs by […]
Staphylococcus warneri = experiment: Antibacterial activity against Staphylococcus warneri after 18 to 22 hrs by […]
Streptococcus pyogenes = experiment: Antibacterial activity against Streptococcus pyogenes after 18 to 22 hrs by […]
Enterococcus faecalis = experiment: Antibacterial activity against Enterococcus faecalis after 18 to 22 hrs by […]
Candida albicans = experiment: Antifungal activity against 10 strains of Candida albicans after 24 hrs by […]
Pichia kudriavzevii = experiment: Antifungal activity against 3 strains of Candida krusei after 24 hrs by […]
Candida parapsilosis = experiment: Antifungal activity against 4 strains of Candida parapsilosis after 24 hrs by […]; details: Lodderomyces parapsilosis
[Candida] sake = Antifungal activity against 2 strains of Candida sake after 24 hrs by […]; details: Fermentozyma sake
Nakaseomyces glabratus = experiment: Antifungal activity against 4 strains of Candida glabrata after 24 hrs by […]
Candida tropicalis = experiment: Antifungal activity against 4 strains of Candida tropicalis after 24 hrs by […]

Row | Compound | MIC (Escherichia coli) [mg/L] | MIC (Proteus vulgaris) [mg/L] | MIC (Klebsiella aerogenes) [mg/L] | MIC (Klebsiella pneumoniae) [mg/L] | MIC (Staphylococcus aureus) [mg/L] | MIC (Staphylococcus warneri) [mg/L] | MIC (Streptococcus pyogenes) [mg/L] | MIC (Enterococcus faecalis) [mg/L] | MIC (Candida albicans) [mg/L] | MIC (Pichia kudriavzevii) [mg/L] | MIC (Candida parapsilosis) [mg/L] | MIC ([Candida] sake) [mg/L] | MIC (Nakaseomyces glabratus) [mg/L] | MIC (Candida tropicalis) [mg/L]
1 | C/C(=N\Nc1nc(-c2ccc(I)cc2)cs1)c1ccccn1 | > 128 | > 128 | > 128 | 32 (≈ 76.1 µM) | 32 (≈ 76.1 µM) | > 128 | > 128 | > 128 | 0.25 (≈ 0.595 µM) | 64 (≈ 152 µM) | 2 (≈ 4.76 µM) | 64 (≈ 152 µM) | 2 (≈ 4.76 µM) | 0.5 (≈ 1.19 µM)
2 | Ic1ccc(-c2csc(N/N=C/c3cccnc3)n2)cc1 | 16 (≈ 39.4 µM) | > 128 | 16 (≈ 39.4 µM) | > 128 | 32 (≈ 78.8 µM) | > 128 | 32 (≈ 78.8 µM) | 32 (≈ 78.8 µM) | 2 (≈ 4.92 µM) | 64 (≈ 158 µM) | 2 (≈ 4.92 µM) | 64 (≈ 158 µM) | 4 (≈ 9.85 µM) | 2 (≈ 4.92 µM)
3 | C/C(=N\Nc1nc(-c2ccc(I)cc2)cs1)c1cccnc1 | 32 (≈ 76.1 µM) | 16 (≈ 38.1 µM) | > 128 | 32 (≈ 76.1 µM) | > 128 | > 128 | 32 (≈ 76.1 µM) | 32 (≈ 76.1 µM) | 0.25 (≈ 0.595 µM) | 64 (≈ 152 µM) | 2 (≈ 4.76 µM) | 64 (≈ 152 µM) | 2 (≈ 4.76 µM) | 0.5 (≈ 1.19 µM)
4 | Ic1ccc(-c2csc(N/N=C/c3ccncc3)n2)cc1 | > 128 | > 128 | > 128 | > 128 | 32 (≈ 78.8 µM) | 32 (≈ 78.8 µM) | 2 (≈ 4.92 µM) | 2 (≈ 4.92 µM) | 0.25 (≈ 0.615 µM) | 128 (≈ 315 µM) | 2 (≈ 4.92 µM) | 128 (≈ 315 µM) | 2 (≈ 4.92 µM) | 0.5 (≈ 1.23 µM)
5 | Ic1ccc(-c2csc(N/N=C/c3c[nH]c4ccccc34)n2)cc1 | > 128 | > 128 | > 128 | > 128 | 32 (≈ 72 µM) | 32 (≈ 72 µM) | 4 (≈ 9 µM) | 4 (≈ 9 µM) | 0.5 (≈ 1.13 µM) | 4 (≈ 9 µM) | 0.5 (≈ 1.13 µM) | 4 (≈ 9 µM) | 4 (≈ 9 µM) | 2 (≈ 4.5 µM)
6 | Ic1ccc(-c2csc(N/N=C/c3ccc4c(c3)OCO4)n2)cc1 | > 128 | > 128 | > 128 | > 128 | 32 (≈ 71.2 µM) | 32 (≈ 71.2 µM) | > 128 | 32 (≈ 71.2 µM) | 2 (≈ 4.45 µM) | 2 (≈ 4.45 µM) | 2 (≈ 4.45 µM) | 4 (≈ 8.9 µM) | 4 (≈ 8.9 µM) | 2 (≈ 4.45 µM)
7 | C/C(=N\Nc1nc(-c2ccc(I)cc2)cs1)c1ccc2ccccc2c1 | 16 (≈ 34.1 µM) | 16 (≈ 34.1 µM) | 16 (≈ 34.1 µM) | 16 (≈ 34.1 µM) | 8 (≈ 17 µM) | 4 (≈ 8.52 µM) | 8 (≈ 17 µM) | 4 (≈ 8.52 µM) | 2 (≈ 4.26 µM) | 64 (≈ 136 µM) | 2 (≈ 4.26 µM) | 64 (≈ 136 µM) | 4 (≈ 8.52 µM) | 2 (≈ 4.26 µM)
8 | C/C(=N\Nc1nc(-c2ccc(I)cc2)cs1)c1cc2ccccc2oc1=O | 16 (≈ 32.8 µM) | > 128 | > 128 | > 128 | 32 (≈ 65.7 µM) | 4 (≈ 8.21 µM) | 4 (≈ 8.21 µM) | 8 (≈ 16.4 µM) | 2 (≈ 4.1 µM) | 2 (≈ 4.1 µM) | 2 (≈ 4.1 µM) | 4 (≈ 8.21 µM) | 4 (≈ 8.21 µM) | 2 (≈ 4.1 µM)
9 | CC(C)(O/N=C(\C(=O)N[C@@H]1C(=O)N2C(C(=O)[O-])=C(C[n+]3ccccc3)CS[C@H]12)c1csc(N)n1)C(=O)O [CEFTAZIDIME] | 4 (≈ 7.32 µM) | 2 (≈ 3.66 µM) | 2 (≈ 3.66 µM) | 2 (≈ 3.66 µM) | 0.5 (≈ 0.915 µM) | 0.5 (≈ 0.915 µM) | 0.5 (≈ 0.915 µM) | 0.5 (≈ 0.915 µM) |  |  |  |  |  | 
10 | OC(Cn1cncn1)(Cn1cncn1)c1ccc(F)cc1F [FLUCONAZOLE] |  |  |  |  |  |  |  |  | 4 (≈ 13.1 µM) | 4 (≈ 13.1 µM) | 4 (≈ 13.1 µM) | 4 (≈ 13.1 µM) | 4 (≈ 13.1 µM) | 4 (≈ 13.1 µM)
11 | COC1=CC(=O)C[C@@H](C)[C@]12Oc1c(Cl)c(OC)cc(OC)c1C2=O [GRISEOFULVIN] |  |  |  |  |  |  |  |  | 8 (≈ 22.7 µM) | 8 (≈ 22.7 µM) | 8 (≈ 22.7 µM) | 8 (≈ 22.7 µM) | 8 (≈ 22.7 µM) | 8 (≈ 22.7 µM)
